The term IC50 denotes the midpoint of a concentration-inhibition curve.

Molecules are shown by their SMILES. Like-named read-outs stand apart in the source and are kept apart here.

This assay has as its target human sodium ion channel 1.7 (hNav1.7) (Homo sapiens, UniProt Q15858). The assay is described as follows: Blocking effect against sodium ion channel Nav1.7, IonFlux16 auto patch clamp in hNav1.7 HEK293 cells. The assay is classed as cell-based. In general terms: In patch-clamp work, channel activity is measured electrically.
The mark [1] stands for this setting: hNav1.7 HEK293 cells, inhibition of peak current after 50 seconds treatment, eight concentrations, read-out: IC50.

Sequence of human sodium ion channel 1.7 (hNav1.7) (Q15858 whole entry): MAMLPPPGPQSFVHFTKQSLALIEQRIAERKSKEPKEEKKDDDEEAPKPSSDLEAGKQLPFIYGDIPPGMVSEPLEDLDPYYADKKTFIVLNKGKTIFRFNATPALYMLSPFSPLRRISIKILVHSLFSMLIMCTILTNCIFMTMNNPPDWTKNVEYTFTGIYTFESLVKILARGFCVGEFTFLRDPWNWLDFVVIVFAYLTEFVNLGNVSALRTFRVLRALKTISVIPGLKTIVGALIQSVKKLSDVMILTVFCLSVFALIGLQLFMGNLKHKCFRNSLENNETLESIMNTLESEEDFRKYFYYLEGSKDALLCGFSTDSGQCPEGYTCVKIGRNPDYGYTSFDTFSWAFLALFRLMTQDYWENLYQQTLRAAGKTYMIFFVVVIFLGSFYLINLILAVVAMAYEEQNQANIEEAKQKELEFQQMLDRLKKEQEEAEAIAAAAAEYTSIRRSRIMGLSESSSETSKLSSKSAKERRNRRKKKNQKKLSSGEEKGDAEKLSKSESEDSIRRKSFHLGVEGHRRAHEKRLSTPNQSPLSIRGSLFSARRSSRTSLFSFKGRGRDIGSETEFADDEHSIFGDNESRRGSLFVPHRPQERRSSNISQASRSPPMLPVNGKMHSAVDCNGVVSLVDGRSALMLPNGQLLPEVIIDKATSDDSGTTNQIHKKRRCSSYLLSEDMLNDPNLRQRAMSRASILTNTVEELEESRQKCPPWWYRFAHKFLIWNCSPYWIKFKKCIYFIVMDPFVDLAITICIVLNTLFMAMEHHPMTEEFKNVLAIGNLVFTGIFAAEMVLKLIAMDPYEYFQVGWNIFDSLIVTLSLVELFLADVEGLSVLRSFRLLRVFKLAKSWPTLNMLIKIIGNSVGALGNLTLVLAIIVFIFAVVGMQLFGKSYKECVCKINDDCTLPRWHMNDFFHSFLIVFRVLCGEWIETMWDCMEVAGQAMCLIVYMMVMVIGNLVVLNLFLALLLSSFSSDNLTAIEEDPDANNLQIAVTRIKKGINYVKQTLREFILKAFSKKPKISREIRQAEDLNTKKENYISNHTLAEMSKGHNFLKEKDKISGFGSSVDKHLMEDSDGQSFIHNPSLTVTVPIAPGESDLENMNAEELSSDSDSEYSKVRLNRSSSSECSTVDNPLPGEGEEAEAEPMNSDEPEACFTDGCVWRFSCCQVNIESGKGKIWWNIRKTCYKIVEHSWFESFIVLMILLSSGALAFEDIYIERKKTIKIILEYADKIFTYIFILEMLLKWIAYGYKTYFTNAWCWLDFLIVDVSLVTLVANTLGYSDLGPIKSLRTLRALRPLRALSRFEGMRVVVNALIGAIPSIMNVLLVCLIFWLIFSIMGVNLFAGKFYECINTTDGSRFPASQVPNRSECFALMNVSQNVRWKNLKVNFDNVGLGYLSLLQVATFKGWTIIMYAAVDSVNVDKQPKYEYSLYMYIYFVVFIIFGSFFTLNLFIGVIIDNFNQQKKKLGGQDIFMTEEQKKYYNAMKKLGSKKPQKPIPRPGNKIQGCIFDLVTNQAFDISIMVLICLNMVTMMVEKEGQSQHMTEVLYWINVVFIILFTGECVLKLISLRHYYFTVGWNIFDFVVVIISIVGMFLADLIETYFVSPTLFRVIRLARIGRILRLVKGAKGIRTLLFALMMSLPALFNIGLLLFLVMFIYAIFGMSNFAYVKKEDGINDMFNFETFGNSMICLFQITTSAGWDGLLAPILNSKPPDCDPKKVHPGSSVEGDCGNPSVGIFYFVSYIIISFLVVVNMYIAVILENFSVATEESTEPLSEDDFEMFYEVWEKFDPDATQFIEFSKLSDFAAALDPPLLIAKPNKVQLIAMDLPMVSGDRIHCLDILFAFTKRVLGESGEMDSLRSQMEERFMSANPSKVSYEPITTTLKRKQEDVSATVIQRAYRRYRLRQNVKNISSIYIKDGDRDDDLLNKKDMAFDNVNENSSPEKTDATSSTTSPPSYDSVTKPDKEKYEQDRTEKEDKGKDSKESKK

On to `CC(Oc1ccc2c(c1)c(Cl)nn2-c1cc(F)c(C(=O)NS(C)(=O)=O)cc1Cl)c1ccc(F)cc1` (stereo not shown) [Example 39, 5-chloro-4-(3-chloro-5-(1-(4-fluorophenyl)ethoxy)-1H-indazol-1-yl)-2-fluoro-N-(methylsulfonyl)benzamide], for which the IC50 under setting [1] was 280 nM.
`CS(=O)(=O)NC(=O)c1cc(Cl)c(-n2nc(Cl)c3cc(OCCc4ccccc4)ccc32)cc1F` [Example 40, 5-chloro-4-(3-chloro-5-phenethoxy-1H-indazol-1-yl)-2-fluoro-N-(methylsulfonyl)benzamide]: the half-inhibitory concentration (IC50) under setting [1] came to 190 nM.
As for `CC(C)COc1ccc2c(cnn2-c2cc(F)c(C(=O)NS(C)(=O)=O)cc2Cl)c1` [Example 41, 5-chloro-2-fluoro-4-(5-isobutoxy-1H-indazol-1-yl)-N-(methylsulfonyl)benzamide], the IC50 under setting [1] was found to be 6340 nM.
On the same count and under the same terms, in the case of `CC(C)COc1ccc2c(c1)c(Cl)nn2-c1cc(F)c(C(=O)NS(C)(=O)=O)cc1Cl` [Example 42, 5-chloro-4-(3-chloro-5-isobutoxy-1H-indazol-1-yl)-2-fluoro-N-(methylsulfonyl)benzamide] it was 181 nM; in that of `CN(C)S(=O)(=O)NC(=O)c1cc(Cl)c(-n2nc(Cl)c3cc(OCc4ccccc4)ccc32)cc1F` [Example 43, 4-(5-(benzyloxy)-3-chloro-1H-indazol-1-yl)-5-chloro-N—(N,N-dimethylsulfamoyl)-2-fluorobenzamide], 200 nM.
As to `CS(=O)(=O)NC(=O)c1ccc(-n2nc(Cl)c3cc(OCc4ccccc4)ccc32)c(Cl)c1` [Example 44, 4-(5-(benzyloxy)-3-chloro-1H-indazol-1-yl)-3-chloro-N-(methylsulfonyl)benzamide], the IC50 under setting [1] worked out at 166 nM.
With `CS(=O)(=O)NC(=O)c1cc(Cl)c(-n2nc(Cl)c3ccc(OCc4ccccc4)cc32)cc1F` [Example 45, 4-(6-(benzyloxy)-3-chloro-1H-indazol-1-yl)-5-chloro-2-fluoro-N-(methylsulfonyl)benzamide], the IC50 under setting [1] is 134 nM.
On the same count and under the same terms, in the case of `COC(=O)c1nn(-c2cc(F)c(C(=O)NS(C)(=O)=O)cc2Cl)c2cc(OCc3ccccc3)ccc12` [Example 46, methyl 6-(benzyloxy)-1-(2-chloro-5-fluoro-4-((methylsulfonyl)carbamoyl)phenyl)-1H-indazole-3-carboxylate] it was greater than 10000 nM; in that of `CS(=O)(=O)NC(=O)c1cc(Cl)c(-n2nc(Cl)c3cc(Oc4ccc(F)nc4)ccc32)cc1F` [Example 47, 5-chloro-4-(3-chloro-5-((6-fluoropyridin-3-yl)oxy)-1H-indazol-1-yl)-2-fluoro-N-(methylsulfonyl)benzamide], 437 nM; in that of `CS(=O)(=O)NC(=O)c1cc(Cl)c(-n2nc(-c3ccccc3)c3cc(Cl)ccc32)cc1F` [Example 48, 5-chloro-4-(5-chloro-3-phenyl-1H-indazol-1-yl)-2-fluoro-N-(methylsulfonyl)benzamide], 48 nM.
`CS(=O)(=O)NC(=O)c1cc(Cl)c(-n2nc(-c3ccncc3)c3cc(Cl)ccc32)cc1F` [Example 49, 5-chloro-4-(5-chloro-3-(pyridin-4-yl)-1H-indazol-1-yl)-2-fluoro-N-(methylsulfonyl)benzamide]: under setting [1], the IC50 came out at 2220 nM.
On to `CS(=O)(=O)NC(=O)c1cc(Cl)c(-n2nc(-c3cccnc3)c3cc(Cl)ccc32)cc1F` [Example 50, 5-chloro-4-(5-chloro-3-(pyridin-3-yl)-1H-indazol-1-yl)-2-fluoro-N-(methylsulfonyl)benzamide], for which the IC50 under setting [1] stood at 913 nM.
For the molecule `CS(=O)(=O)NC(=O)c1cc(Cl)c(-n2nc(-c3cncc(Cl)c3)c3cc(Cl)ccc32)cc1F` [Example 51, 5-chloro-4-(5-chloro-3-(5-chloropyridin-3-yl)-1H-indazol-1-yl)-2-fluoro-N-(methylsulfonyl)benzamide], under setting [1], the IC50 came to 187 nM.
`Cc1cccc(-c2nn(-c3cc(F)c(C(=O)NS(C)(=O)=O)cc3Cl)c3ccc(Cl)cc23)c1` [Example 52, 5-chloro-4-(5-chloro-3-(m-tolyl)-1H-indazol-1-yl)-2-fluoro-N-(methylsulfonyl)benzamide] registered an IC50 of 39 nM.
In the case of `CS(=O)(=O)NC(=O)c1cc(Cl)c(-n2nc(-c3ccccc3F)c3cc(Cl)ccc32)cc1F` [Example 53, 5-chloro-4-(5-chloro-3-(2-fluorophenyl)-1H-indazol-1-yl)-2-fluoro-N-(methylsulfonyl)benzamide], under setting [1], the IC50 was 33 nM.
Take `CS(=O)(=O)NC(=O)c1cc(Cl)c(-n2nc(-c3cccc(F)c3)c3cc(Cl)ccc32)cc1F` [Example 54, 5-chloro-4-(5-chloro-3-(3-fluorophenyl)-1H-indazol-1-yl)-2-fluoro-N-(methylsulfonyl)benzamide]: the IC50 under setting [1] came to 26 nM.
On the same count and under the same terms, in the case of `CS(=O)(=O)NC(=O)c1cc(Cl)c(-n2nc(-c3ccc(F)cc3)c3cc(Cl)ccc32)cc1F` [Example 55, 5-chloro-4-(5-chloro-3-(4-fluorophenyl)-1H-indazol-1-yl)-2-fluoro-N-(methylsulfonyl)benzamide] it was 51 nM.
On to `CS(=O)(=O)NC(=O)c1cc(Cl)c(-n2nc(-c3ccc(F)cc3F)c3cc(Cl)ccc32)cc1F` [Example 56, 5-chloro-4-(5-chloro-3-(2,4-difluorophenyl)-1H-indazol-1-yl)-2-fluoro-N-(methylsulfonyl)benzamide], for which, under setting [1], the IC50 was found to be 40 nM.
The same measure, in the same setting: in the case of `COc1ncccc1-c1nn(-c2cc(F)c(C(=O)NS(C)(=O)=O)cc2Cl)c2ccc(Cl)cc12` [Example 57, 5-chloro-4-(5-chloro-3-(2-methoxypyridin-3-yl)-1H-indazol-1-yl)-2-fluoro-N-(methylsulfonyl)benzamide] it was 123 nM; in that of `COc1ccccc1-c1nn(-c2cc(F)c(C(=O)NS(C)(=O)=O)cc2Cl)c2ccc(Cl)cc12` [Example 58, 5-chloro-4-(5-chloro-3-(2-methoxyphenyl)-1H-indazol-1-yl)-2-fluoro-N-(methylsulfonyl)benzamide], 98 nM; in that of `COc1ccc(-c2nn(-c3cc(F)c(C(=O)NS(C)(=O)=O)cc3Cl)c3ccc(Cl)cc23)cc1` [Example 59, 5-chloro-4-(5-chloro-3-(4-methoxyphenyl)-1H-indazol-1-yl)-2-fluoro-N-(methylsulfonyl)benzamide], 108 nM.
The same measure, in the same setting: in the case of `CS(=O)(=O)NC(=O)c1cc(Cl)c(-n2nc(-c3ccccc3C#N)c3cc(Cl)ccc32)cc1F` [Example 60, 5-chloro-4-(5-chloro-3-(2-cyanophenyl)-1H-indazol-1-yl)-2-fluoro-N-(methylsulfonyl)benzamide] it was greater than 10000 nM; in that of `CS(=O)(=O)NC(=O)c1cc(Cl)c(-n2nc(-c3cccc(C#N)c3)c3cc(Cl)ccc32)cc1F` [Example 61, 5-chloro-4-(5-chloro-3-(3-cyanophenyl)-1H-indazol-1-yl)-2-fluoro-N-(methylsulfonyl)benzamide], 96 nM; in that of `CS(=O)(=O)NC(=O)c1cc(Cl)c(-n2nc(-c3ccc(C#N)cc3)c3cc(Cl)ccc32)cc1F` [Example 62, 5-chloro-4-(5-chloro-3-(4-cyanophenyl)-1H-indazol-1-yl)-2-fluoro-N-(methylsulfonyl)benzamide], 554 nM.
The same measure, in the same setting: in the case of `CS(=O)(=O)NC(=O)c1cc(Cl)c(-n2nc(-c3ccccc3C(F)(F)F)c3cc(Cl)ccc32)cc1F` [Example 63, 5-chloro-4-(5-chloro-3-(2-(trifluoromethyl)phenyl)-1H-indazol-1-yl)-2-fluoro-N-(methylsulfonyl)benzamide] it was 41 nM; in that of `CS(=O)(=O)NC(=O)c1cc(Cl)c(-n2nc(-c3cccc(C(F)(F)F)c3)c3cc(Cl)ccc32)cc1F` [Example 64, 5-chloro-4-(5-chloro-3-(3-(trifluoromethyl)phenyl)-1H-indazol-1-yl)-2-fluoro-N-(methylsulfonyl)benzamide], 94 nM; in that of `CS(=O)(=O)NC(=O)c1cc(Cl)c(-n2nc(-c3ccc(C(F)(F)F)cc3)c3cc(Cl)ccc32)cc1F` [Example 65, 5-chloro-4-(5-chloro-3-(4-(trifluoromethyl)phenyl)-1H-indazol-1-yl)-2-fluoro-N-(methylsulfonyl)benzamide], 28 nM.
`CS(=O)(=O)NC(=O)c1cc(Cl)c(-n2nc(-c3ccc(Cl)cc3F)c3cc(Cl)ccc32)cc1F` [Example 66, 5-chloro-4-(5-chloro-3-(4-chloro-2-fluorophenyl)-1H-indazol-1-yl)-2-fluoro-N-(methylsulfonyl)benzamide]: the IC50 under setting [1] was 16 nM.
Take `CS(=O)(=O)NC(=O)c1cc(Cl)c(-n2nc(-c3ccc(Cl)cc3)c3cc(Cl)ccc32)cc1F` [Example 67, 5-chloro-4-(5-chloro-3-(4-chlorophenyl)-1H-indazol-1-yl)-2-fluoro-N-(methylsulfonyl)benzamide]: under setting [1], the IC50 came to 33 nM.
In the case of `CS(=O)(=O)NC(=O)c1cc(Cl)c(-n2nc(-c3ccnc(F)c3)c3cc(Cl)ccc32)cc1F` [Example 68, 5-chloro-4-(5-chloro-3-(2-fluoropyridin-4-yl)-1H-indazol-1-yl)-2-fluoro-N-(methylsulfonyl)benzamide], under setting [1], the IC50 came to 590 nM.
Same read-out and setting: in the case of `CS(=O)(=O)NC(=O)c1cc(Cl)c(-n2nc(-c3cc(Cl)ccc3F)c3cc(Cl)ccc32)cc1F` [Example 69, 5-chloro-4-(5-chloro-3-(5-chloro-2-fluorophenyl)-1H-indazol-1-yl)-2-fluoro-N-(methylsulfonyl)benzamide] it was 37 nM.
Still for that read-out and setting: in the case of `CS(=O)(=O)NC(=O)c1cc(Cl)c(-n2nc(-c3ccccc3Cl)c3cc(Cl)ccc32)cc1F` [Example 71, 5-chloro-4-(5-chloro-3-(2-chlorophenyl)-1H-indazol-1-yl)-2-fluoro-N-(methylsulfonyl)benzamide] it was 48 nM; in that of `CS(=O)(=O)NC(=O)c1cc(Cl)c(-n2nc(-c3cccc(Cl)c3)c3cc(Cl)ccc32)cc1F` [Example 72, 5-chloro-4-(5-chloro-3-(3-chlorophenyl)-1H-indazol-1-yl)-2-fluoro-N-(methylsulfonyl)benzamide], 61 nM.
Consider `CS(=O)(=O)NC(=O)c1cc(Cl)c(-n2nc(-c3cc(F)cc(Cl)c3)c3cc(Cl)ccc32)cc1F` [Example 73, 5-chloro-4-(5-chloro-3-(3-chloro-5-fluorophenyl)-1H-indazol-1-yl)-2-fluoro-N-(methylsulfonyl)benzamide], for which the IC50 under setting [1] is 30 nM.
